According to patent publication US12097210B2, “Concomitant administration of glucocorticoid receptor modulators and CYP3A inhibitors” (Corcept Therapeutics, Inc., priority 2017, dated 2024):

Tests used:
[1] = system: CYP3A; conditions: 38 published studies, 411 subjects; concomitantly administered CYP3A inhibitor; cited from earlier work
[2] = Example 3: effect of co-administration with mifepristone on ketoconazole PK; assay type: in vivo, human
Description: (§1) A single dose of ketoconazole was administered on Day −1.
(§2) The study was a two period study design.

[3] = Example 2: PK of ketoconazole 400 mg single dose on Day 8 of mifepristone regimen; assay type: in vivo, human; conditions: single 400 mg ketoconazole dose on Day 8
From the text: (§3) Subjects were discharged on Day 11.
(§4) Subjects were discharged on Day 11. Subjects in both cohorts returned to study center on Day 13 for safety monitoring, collection of the 120-hour PK draw, and completion of the Termination Visit procedures, followed by discharge from the study. To the extent possible, any adverse events deemed study drug-related and that were ongoing at the time of discharge from the study were followed-up to resolution or until a determination was made that the unresolved event was stable.
(§5) DURATION OF TREATMENT: Up to a total of 28 days, including up to 2 weeks screening, dosing on Days 1-8, safety observation, and PK sample collection through Day 13.
(§6) Additionally, comparisons were made between the PK results of cohort 1 and 2. Pharmacokinetic parameters Cmax, T½ and total AUC were calculated for plasma concentrations of ketoconazole following the single dose on Day 8. Descriptive statistics (count, mean, median, standard deviation, minimum, maximum, and % coefficient of variation) were provided. Ketoconazole concentrations were listed and summarized. GM means of Cmax and total AUC were compared for the single dose in this study to the combined data of reported 400 mg single doses of ketoconazole of healthy subjects from the literature.

[4] = Example 3: effect of ketoconazole 200 mg twice daily on PK of mifepristone 600 mg once daily and metabolites, with food; assay type: in vivo, human; conditions: for concentrations on Day 17 compared with Day 12: 600 mg mifepristone daily with 200 mg ketoconazole twice daily vs mifepristone alone; for Ratio % Test/Reference, AUC0-24 / Ratio % Test/Reference, Cmax: Test: Day 17, 600 mg mifepristone OD + 200 mg Ketoconazole BID, Reference: Day 12, 600 mg mifepristone OD, geometric mean ratio
Description: as §1, §2
Concentrations of RU 42633 and RU 42848 were similar on Day 17 and Day 12.

[5] = Example 3: cross-study comparison of exposure with historic study of 1200 mg mifepristone OD; assay type: in vivo, human; conditions: Test: Day 17, 600 mg mifepristone OD + 200 mg Ketoconazole BID; Reference: historic study Day 7, 1200 mg mifepristone OD alone; after 34% fat meal
[6] = clinical; conditions: male, human, in vivo
Description: This study was conducted in accordance with Good Clinical Practice under the guidance of an Institutional Review Board and in accordance with applicable local legal and regulatory requirements.
KORLYM® was supplied in 300 mg tablets for oral administration. Three or four tablets were administered once daily (OD) to provide either the 900 mg or 1200 mg per day dose.
Itraconazole was supplied • in 100 mg capsules for oral administration. Two capsules were administered once daily (OD) to provide the 200 mg per day dose.
All drug administrations were oral and were given after the morning meal.
The inclusion criteria required, among other criteria, that the subjects be healthy male subjects between the ages of 18 and 65, weigh more than 110 pounds, and have a body mass index (BMI) of 18 to 32 kg/m^2. The design included a Screening Period of up to 3 weeks (subjects were screened at a time between days −21 to −1 prior to the first treatment period), three 14-day treatment periods, and a Follow-Up (FU) Period of 14 days for safety observation.
Subjects meeting the inclusion criteria (n=22) were administered drug daily and blood samples were taken on the days indicated below during Periods 1-3 and on day 43 of the follow-up period.
Subjects presented at the Clinical Research Unit (CRU) after an 8-hour overnight fast, then predose PK samples were taken and other evaluations (predose electrocardiograms (ECGs), plasma cortisol and ACTH, serum chemistry tests) were performed. […] On the specific days indicated above, additional blood draws for determining 24-hour PK profiles were performed.
Pharmacokinetic (PK) parameters measured and computed included AUC (area under the concentration−time curve), AUC0-24 (AUC values from time 0 to 24 hours postdose), Cmax (maximum concentration), and Css (average steady-state concentration, calculated as AUC0-24/24).

[7] = Example 2: effect of a 400 mg single dose of ketoconazole on PK of an 8-day regimen of 300 mg or 600 mg OD mifepristone after moderate fat breakfast; assay type: in vivo, human; conditions: 300 or 600 mg OD mifepristone
Description: This was an open-label study in healthy male subjects. […] The 400 mg single dose of ketoconazole was given to all subjects on day 8.
METHODOLOGY: Twelve subjects were enrolled, six in Cohort 1 and 6 in Cohort 2.
as §3, §4
DIAGNOSIS AND MAIN […] FOR INCLUSION: Healthy male volunteers between the ages of 18 to 45 years of age with a body mass index (BMI) ranging between 19 and 32 kg/m2 and a weight of at least 60 kg (132 lbs) were enrolled. Subjects had no clinically significant abnormal findings on the physical examination, ECG, blood pressure, heart rate, medical history, or clinical laboratory results during screening. The QTc interval at screening was less than 450 msec.
as §5, §6

[8] = 400 mg ketoconazole (200 mg twice per day) with 600 mg mifepristone per day
[9] = Test: Day 17, 600 mg mifepristone OD + 200 mg Ketoconazole BID, Reference: Day −1, 200 mg Ketoconazole single dose
[10] = 600 mg mifepristone OD + 200 mg ketoconazole BID

| change in exposure on co-administration with ketoconazole [4, 10] | concentrations on Day 17 compared with Day 12 [4] | Ratio % Test/Reference, AUC0-24 [4] | Ratio % Test/Reference, Cmax [4] | Ratio % Test/Ref, AUC0-24 [5] | Ratio % Test/Ref, Cmax [5] | AUC(0-t) ([6]; 900 mg) | Cmax ([6]; 900 mg) | AUC(0-t) ([6]; 1200 mg) | Cmax ([6]; 1200 mg) | SMILES | increase of plasma levels (AUC) of orally administered midazolam [1] | also measured |
| --- | --- | --- | --- | --- | --- | --- | --- | --- | --- | --- | --- | --- |
| – | – | – | – | – | – | – | – | – | – | CC(=O)N1CCN(c2ccc(OCC3COC(Cn4ccnc4)(c4ccc(Cl)cc4Cl)O3)cc2)CC1 (stereo not drawn) [Ketoconazole, 1-acetyl-4-[4-[[2-(2,4-dichlorophenyl)-2-[(1H-imidazol-1-yl)-methyl]-1,3-dioxolan-4-yl]methoxy]phenyl]piperazine] | more than 11 fold | increase in ketoconazole AUC with concomitant mifepristone [2, 8]: 253%; increase in ketoconazole Cmax with concomitant mifepristone [2, 8]: 365%; Ratio % Test/Reference, AUC [2, 9]: 365.36%; Ratio % Test/Reference, Cmax [2, 9]: 252.71%; ketoconazole half-life on either mifepristone regimen [3]: not appreciably different |
| little change in exposure | similar | 102.33% | 105.73% | 91.34% | 96.31% | 40300 ng·h/mL | 1970 ng/mL | 45800 ng·h/mL | 2160 ng/mL | CC#C[C@]1(O)CC[C@H]2[C@@H]3CCC4=CC(=O)CCC4=C3[C@@H](c3ccc(NC)cc3)C[C@@]21C [RU 42633, (8S,11R,13S,14S,17S)-17-hydroxy-13-methyl-11-[4-(methylamino)phenyl]-17-prop-1-ynyl-1,2,6,7,8,11,12,14,15,16-decahydrocyclopenta[a]phenanthren-3-one] | – | – |
| – | higher | 166.86% | 169.13% | 118.18% | 116.55% | 15100 ng·h/mL | 755 ng/mL | 16900 ng·h/mL | 853 ng/mL | CN(C)c1ccc([C@H]2C[C@@]3(C)[C@@H](CC[C@@]3(O)C#CCO)[C@@H]3CCC4=CC(=O)CCC4=C32)cc1 [RU 42698, (8S,11R,13S,14S,17S)-11-[4-(dimethylamino)phenyl]-17-hydroxy-17-(3-hydroxyprop-1-ynyl)-13-methyl-1,2,6,7,8,11,12,14,15,16-decahydrocyclopenta[a]phenanthren-3-one] | – | mean increase in exposure on co-administration with ketoconazole [4, 10]: approximately 70%; share of the total steady-state AUC0-24 of mifepristone, RU42633, RU42698, RU42848 ([4]; in the presence of ketoconazole): 13%; share of the total steady-state AUC0-24 of mifepristone, RU42633, RU42698, RU42848 ([4]; mifepristone alone): 9%; mean metabolite exposure compared with mifepristone [7]: lower |
| little change in exposure | similar | 94.88% | 95.48% | 81.43% | 82.45% | 33900 ng·h/mL | 1630 ng/mL | 36500 ng·h/mL | 1770 ng/mL | CC#C[C@]1(O)CC[C@H]2[C@@H]3CCC4=CC(=O)CCC4=C3[C@@H](c3ccc(N)cc3)C[C@@]21C [RU 42848, (8S,11R,13S,14S,17S)-11-(4-aminophenyl)-17-hydroxy-13-methyl-17-prop-1-ynyl-1,2,6,7,8,11,12,14,15,16-decahydrocyclopenta[a]phenanthren-3-one] | – | trough concentrations through the start of ketoconazole administration (Day 13) ([4]; FIG. 1, 600 mg mifepristone OD): increasing day-by-day |
| – | – | – | – | – | – | – | – | – | – | CC[C@H]1OC(=O)[C@H](C)[C@@H](O[C@H]2C[C@@](C)(OC)[C@@H](O)[C@H](C)O2)[C@H](C)[C@@H](O[C@@H]2O[C@H](C)C[C@H](N(C)C)[C@H]2O)[C@](C)(OC)C[C@@H](C)C(=O)[C@H](C)[C@@H](O)[C@]1(C)O [clarithromycin] | more than 6 fold | – |
| – | – | – | – | – | – | – | – | – | – | CCC(C)n1ncn(-c2ccc(N3CCN(c4ccc(OCC5COC(Cn6cncn6)(c6ccc(Cl)cc6Cl)O5)cc4)CC3)cc2)c1=O (stereo not drawn) [itraconazole] | more than 7 fold | – |
